Data taken from patent publication US10294202B2, “Pyrrolidinones as herbicides” (FMC Corporation, priority 2013, dated 2019).

Experiments:
[1] = test system: ryegrass, Italian; experiment: Test D pre-/postemergence herbicide test; type: in vivo, Lolium multiflorum; conditions: for Plant response rating: Postemergence, Ryegrass, Italian, scale 0 to 100; for Plant response rating, Ryegrass, Italian: Preemergence, scale 0 to 100 (0 no effect, 100 complete control)
Excerpt: (§1) Seeds of plant species selected from bluegrass (annual bluegrass, Poa annua), blackgrass (Alopecurus myosuroides), canarygrass (littleseed canarygrass, Phalaris minor), chickweed (common chickweed, Stellaria media), galium (catchweed bedstraw, Galium aparine), bromegrass, downy (downy bromegrass, Bromus tectorum), field poppy (Papaver rhoeas), field violet (Viola arvensis), foxtail, green (green foxtail, Setaria viridis), deadnettle (henbit deadnettle, Lamium amplexicaule), ryegrass, Italian (Italian ryegrass, Lolium multiflorum), kochia (Kochia scoparia), lambsquarters (Chenopodium album), oilseed rape (Brassica napus), pigweed (Amaranthus retroflexus), chamomile (scentless chamomile, Matricaria inodora), Russian thistle (Salsola kali), speedwell (bird's-eye speedwell, Veronica persica), barley, spring (spring barley, Hordeum vulgare), wheat, spring (spring wheat, Triticum aestivum), buckwheat, wild (wild buckwheat, Polygonum convolvulus), mustard, wild (wild mustard, Sinapis arvensis), oat, wild (wild oat, Avena fatua), radish, wild (wild radish, Raphanus raphanistrum), […]), barley, winter (winter barley, Hordeum vulgare), and wheat, winter (winter wheat, Triticum aestivum) were planted into a silt loam soil and treated preemergence with test chemicals formulated in a non-phytotoxic solvent mixture which included a surfactant. At the same time, these species were planted in pots containing Redi-Earth® planting medium (Scotts Company, 14111 Scottslawn Road, Marysville, Ohio 43041) comprising spaghnum peat moss, vermiculite, wetting agent and starter nutrients and treated with postemergence applications of the test chemicals formulated in the same manner. Plants ranged in height from 2 to 18 cm (1- to 4-leaf stage). Treated plants and controls were maintained in a controlled growth environment for 7 to 21 days after which time all species were compared to controls and visually evaluated. Plant response ratings, summarized in Table D, are based on a scale of 0 to 100 where 0 is no effect and 100 is complete control. A dash (-) response means no test result.

[2] = test system: soybean; experiment: Test E preemergence herbicide test; type: in vivo, Glycine max; set-up: key: 0 = no effect, 100 = complete control
In short: (§2)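 Greenhouse preemergence test: seeds sown into silt loam received compound in a non-phytotoxic solvent mixture with surfactant. Plants grew 21 days before visual comparison with controls. Scores run from 0, no effect, to 100, complete control.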

[3] = test system: foxtail, green; experiment: Test E preemergence herbicide test; type: in vivo, Setaria viridis; set-up: key: 0 = no effect, 100 = complete control
In short: as §2

[4] = test system: galium; experiment: Test D pre-/postemergence herbicide test; type: in vivo, Galium aparine; conditions: for Plant response rating: Galium, scale 0 to 100; for Plant response rating, Galium: scale 0 to 100 (0 no effect, 100 complete control)
Excerpt: as §1

[5] = test system: crabgrass, large; experiment: Test E preemergence herbicide test; type: in vivo, Digitaria sanguinalis; set-up: key: 0 = no effect, 100 = complete control
Excerpt: Seeds of plant species selected from corn (Zea mays), soybean (Glycine max), velvetleaf (Abutilon theophrasti), lambsquarters (Chenopodium album), wild poinsettia (Euphorbia heterophylla), pigweed, palmer (palmer pigweed, Amaranthus palmeri), waterhemp (common waterhemp, Amaranthus rudis), surinam grass (Brachiaria decumbens), crabgrass, large (large crabgrass, Digitaria sanguinalis), crabgrass, Brazil (Brazilian crabgrass, Digitaria horizontalis), panicum, fall (fall panicum, Panicum dichotomiflorum), foxtail, giant (giant foxtail, Setaria faberii), foxtail, green (green foxtail, Setaria viridis), goosegrass (Eleusine indica), johnsongrass (Sorghum halepense), ragweed (common ragweed, Ambrosia elatior), barnyardgrass (Echinochloa crus-galli), sandbur (southern sandbur, Cenchrus echinatus), arrowleaf […] rhombifolia), ryegrass, Italian (Italian ryegrass, Lolium multiflorum), dayflower, VA (Virginia dayflower, Commelina virginica), field bindweed (Convolvulus arvensis), morningglory (Ipomoea coccinea), nightshade (eastern black nightshade, Solanum ptycanthum), kochia (Kochia scoparia), nutsedge, yellow (yellow nutsedge, Cyperus esculentus), cocklebur (common cocklebur, Xanthium strumarium), smartweed (ladysthumb smartweed, Polygonum Persicaria) and beggarticks (hairy beggarticks, Bidens pilosa), were planted into a silt loam soil and treated preemergence with test chemicals formulated in a non-phytotoxic solvent mixture which included a surfactant. Treated plants and controls were maintained in a greenhouse for 21 days, after which time all species were compared to controls and visually evaluated. Plant response ratings, summarized in Table E, are based on a scale of 0 to 100 where 0 is no effect and 100 is complete control. A dash (-) response means no test result.

[6] = test system: lambsquarters; experiment: Test E preemergence herbicide test; type: in vivo, Chenopodium album; set-up: key: 0 = no effect, 100 = complete control
In short: as §2

Row | Compound | Plant response rating ([1]; 31 g ai/ha) | Plant response rating ([1]; 62 g ai/ha) | Plant response rating ([1]; 125 g ai/ha) | Plant response rating ([1]; 250 g ai/ha) | Plant response rating, Soybean ([2]; 31 g ai/ha) | Plant response rating, Soybean ([2]; 62 g ai/ha) | Plant response rating, Soybean ([2]; 125 g ai/ha) | Plant response rating, Soybean ([2]; 250 g ai/ha) | Plant response rating, Foxtail, Green ([3]; 31 g ai/ha) | Plant response rating, Foxtail, Green ([3]; 62 g ai/ha) | Plant response rating, Foxtail, Green ([3]; 125 g ai/ha) | Plant response rating, Foxtail, Green ([3]; 250 g ai/ha) | Plant response rating ([4]; Postemergence, 31 g ai/ha) | Plant response rating ([4]; Postemergence, 62 g ai/ha) | Plant response rating ([4]; Postemergence, 125 g ai/ha) | Plant response rating ([4]; Postemergence, 250 g ai/ha) | Plant response rating, Crabgrass, Large ([5]; 31 g ai/ha) | Plant response rating, Crabgrass, Large ([5]; 62 g ai/ha) | Plant response rating, Crabgrass, Large ([5]; 125 g ai/ha) | Plant response rating, Crabgrass, Large ([5]; 250 g ai/ha) | also measured
1 | O=C1NCC(c2ccc(C(F)(F)F)cc2)C1C(=O)Nc1cccc(F)c1F (racemic) [Compound 202] | 0 | 0 | 10 | 15 | 0 | 0 | 0 | 0 | 10 | 75 | 98 | 98 | 60 | 70 | 70 | 70 | 98 | 98 | 98 | 98 | Plant response rating, Ryegrass, Italian ([1]; 62 g ai/ha): 5; Plant response rating, Ryegrass, Italian ([1]; 125 g ai/ha): 5; Plant response rating, Ryegrass, Italian ([1]; 31 g ai/ha): 0; Plant response rating, Ryegrass, Italian ([1]; 250 g ai/ha): 10; Plant response rating, Galium ([4]; Preemergence, 62 g ai/ha): 70; Plant response rating, Galium ([4]; Preemergence, 31 g ai/ha): 75; Plant response rating ([4]; Preemergence, 125 g ai/ha): 80; Plant response rating ([4]; Preemergence, 250 g ai/ha): 85; Plant response rating, Lambsquarters ([6]; 31 g ai/ha): 0; Plant response rating, Lambsquarters ([6]; 62 g ai/ha): 98; Plant response rating, Lambsquarters ([6]; 125 g ai/ha): 98; Plant response rating, Lambsquarters ([6]; 250 g ai/ha): 98
2 | O=C1NCC(c2ccc(F)c(F)c2)C1C(=O)Nc1cccc(F)c1F (centres unmarked) [Compound 17, N-(2,3-difluorophenyl)-4-(3,4-difluorophenyl)-2-oxo-3-pyrrolidinecarboxamide] | 0 | 0 | 0 | 0 | 0 | 0 | 0 | 0 | 25 | 40 | 70 | 95 | 0 | 0 | 10 | 30 | 20 | 70 | 75 | 95 | Plant response rating ([1]; 16 g ai/ha): 0; Plant response rating, Soybean ([2]; 16 g ai/ha): 0; Plant response rating, Foxtail, Green ([3]; 16 g ai/ha): 0; Plant response rating ([4]; Postemergence, 16 g ai/ha): 0; Plant response rating, Crabgrass, Large ([5]; 16 g ai/ha): 15; Plant response rating, Lambsquarters ([6]; 16 g ai/ha): 0; Plant response rating, Lambsquarters ([6]; 31 g ai/ha): 0; Plant response rating, Lambsquarters ([6]; 62 g ai/ha): 0; Plant response rating, Lambsquarters ([6]; 125 g ai/ha): 0; Plant response rating, Lambsquarters ([6]; 250 g ai/ha): 0
3 | O=C1NCC(c2ccc(C(F)(F)F)cc2)C1C(=O)Nc1cccc(F)c1F (centres unmarked) [Compound 80, N-(2,3-difluorophenyl)-2-oxo-4-[4-(trifluoromethyl)phenyl]-3-pyrrolidinecarboxamide] | 0 | 0 | 0 | 0 | 0 | 0 | 0 | 40 | 60 | 70 | 80 | 90 | 20 | 45 | 55 | 60 | 90 | 95 | 95 | 95 | Plant response rating, Ryegrass, Italian ([1]; 62 g ai/ha): 5; Plant response rating, Ryegrass, Italian ([1]; 125 g ai/ha): 5; Plant response rating, Ryegrass, Italian ([1]; 31 g ai/ha): 0; Plant response rating, Ryegrass, Italian ([1]; 250 g ai/ha): 15; Plant response rating, Soybean ([2]; 16 g ai/ha): 0; Plant response rating, Foxtail, Green ([3]; 16 g ai/ha): 50; Plant response rating, Galium ([4]; Preemergence, 62 g ai/ha): 45; Plant response rating, Galium ([4]; Preemergence, 31 g ai/ha): 0; Plant response rating ([4]; Preemergence, 125 g ai/ha): 65; Plant response rating ([4]; Preemergence, 250 g ai/ha): 75; Plant response rating, Crabgrass, Large ([5]; 16 g ai/ha): 50; Plant response rating, Lambsquarters ([6]; 16 g ai/ha): 50; Plant response rating, Lambsquarters ([6]; 31 g ai/ha): 80; Plant response rating, Lambsquarters ([6]; 62 g ai/ha): 85; Plant response rating, Lambsquarters ([6]; 125 g ai/ha): 90; Plant response rating, Lambsquarters ([6]; 250 g ai/ha): 90
